Holding throughout (assay): Kinase panel study
Common to all, as to assay type: biochemical
Conditions in all cases: read-out: Percentage of inhibition; for inhibition at 1 µM: 1000nM; for inhibition at 10 µM: 10000nM

For one experiment, the target named is T1, PHKG2 (Homo sapiens, UniProt P15735).
T1 construct: purchased Thermo Fisher Scientific
T1 sequence (P15735 1-406): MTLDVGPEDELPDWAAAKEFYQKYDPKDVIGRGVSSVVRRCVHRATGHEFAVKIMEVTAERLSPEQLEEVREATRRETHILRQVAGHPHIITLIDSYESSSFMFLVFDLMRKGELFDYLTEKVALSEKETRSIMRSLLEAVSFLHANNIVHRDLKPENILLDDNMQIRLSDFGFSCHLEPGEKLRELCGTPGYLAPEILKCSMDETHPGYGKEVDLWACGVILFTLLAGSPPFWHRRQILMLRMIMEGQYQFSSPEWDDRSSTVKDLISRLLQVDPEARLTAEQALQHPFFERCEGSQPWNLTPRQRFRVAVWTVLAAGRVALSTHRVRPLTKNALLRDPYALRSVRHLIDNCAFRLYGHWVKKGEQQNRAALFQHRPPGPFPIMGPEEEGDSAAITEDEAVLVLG
Put shortly: (§1)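 Compounds were tested in vitro against the kinase panel by a service lab. Assays followed standard ZLyte or Adapta protocols. Activity was recorded as % inhibition at 10 µM or 1 µM, with IC50 values where determined.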

A further experiment has as its target T2, STK22D (TSSK1) (Homo sapiens, UniProt Q9BXA7).
T2 construct: purchased Thermo Fisher Scientific
T2 sequence (Q9BXA7 1-367): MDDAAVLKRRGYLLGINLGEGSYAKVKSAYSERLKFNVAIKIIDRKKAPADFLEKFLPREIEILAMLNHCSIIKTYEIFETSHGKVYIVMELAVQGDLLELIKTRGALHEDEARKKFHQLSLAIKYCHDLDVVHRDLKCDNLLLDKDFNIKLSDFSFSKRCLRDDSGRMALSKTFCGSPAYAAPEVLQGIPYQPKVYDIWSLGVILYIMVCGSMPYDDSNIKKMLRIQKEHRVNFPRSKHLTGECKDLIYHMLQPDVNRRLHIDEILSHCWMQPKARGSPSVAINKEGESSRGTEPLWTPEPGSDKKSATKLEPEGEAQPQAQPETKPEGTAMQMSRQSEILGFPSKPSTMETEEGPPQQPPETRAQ
The essentials: as §1

In the next experiment the target is T3, PIM2 (Homo sapiens, UniProt Q9P1W9).
T3 construct: purchased Thermo Fisher Scientific
Put shortly: as §1

Another experiment deals with T4, AMPK (A2/B1/G2) (Homo sapiens, UniProt P54646).
T4 construct: purchased Thermo Fisher Scientific
The essentials:
as §1

Another experiment deals with T5, ROCK2 (Homo sapiens, UniProt O75116).
T5 construct: purchased Thermo Fisher Scientific
The essentials:
as §1

The next experiment addresses T6, AXL (Homo sapiens, UniProt P30530).
T6 construct: purchased Thermo Fisher Scientific
T6 sequence (P30530 26-894): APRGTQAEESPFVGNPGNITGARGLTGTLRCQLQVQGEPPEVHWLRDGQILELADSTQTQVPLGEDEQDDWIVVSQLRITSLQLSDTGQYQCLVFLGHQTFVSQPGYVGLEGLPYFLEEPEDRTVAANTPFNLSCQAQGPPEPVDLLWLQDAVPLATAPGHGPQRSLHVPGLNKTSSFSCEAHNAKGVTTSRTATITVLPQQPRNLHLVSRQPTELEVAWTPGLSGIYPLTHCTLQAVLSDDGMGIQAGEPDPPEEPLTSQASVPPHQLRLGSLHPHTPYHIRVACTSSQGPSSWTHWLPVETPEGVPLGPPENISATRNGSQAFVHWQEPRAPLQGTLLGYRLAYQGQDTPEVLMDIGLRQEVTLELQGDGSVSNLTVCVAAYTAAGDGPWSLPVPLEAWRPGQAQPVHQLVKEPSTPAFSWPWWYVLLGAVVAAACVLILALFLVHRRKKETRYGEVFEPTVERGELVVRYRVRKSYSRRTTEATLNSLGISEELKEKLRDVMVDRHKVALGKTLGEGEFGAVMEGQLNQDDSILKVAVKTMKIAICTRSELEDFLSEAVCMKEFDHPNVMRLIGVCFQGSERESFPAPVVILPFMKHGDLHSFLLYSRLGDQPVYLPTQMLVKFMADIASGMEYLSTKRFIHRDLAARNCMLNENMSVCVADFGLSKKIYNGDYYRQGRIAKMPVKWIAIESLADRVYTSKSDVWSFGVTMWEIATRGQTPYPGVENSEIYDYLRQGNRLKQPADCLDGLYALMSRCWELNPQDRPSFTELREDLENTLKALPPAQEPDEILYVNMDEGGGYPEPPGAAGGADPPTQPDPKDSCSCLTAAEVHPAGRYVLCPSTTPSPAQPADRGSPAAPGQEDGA
Put shortly:
as §1

The next experiment addresses T7, SPHK1 (Homo sapiens, UniProt Q9NYA1).
T7 construct: purchased Thermo Fisher Scientific
Put shortly:
as §1

Among the data in EP4467141A1, “PYRAZOLO-QUINOLINES AS SELECTIVE INHIBITORS OF GENOTOXIC STRESS-INDUCED IKK/NF- KB PATHWAYS FOR CANCER THERAPY” (Max-Delbrück-Centrum für Molekulare Medizin in der …, priority 2023, dated 2024) are inhibition values, retold here.

Structures are written as SMILES.

T5 sequence (O75116 whole entry): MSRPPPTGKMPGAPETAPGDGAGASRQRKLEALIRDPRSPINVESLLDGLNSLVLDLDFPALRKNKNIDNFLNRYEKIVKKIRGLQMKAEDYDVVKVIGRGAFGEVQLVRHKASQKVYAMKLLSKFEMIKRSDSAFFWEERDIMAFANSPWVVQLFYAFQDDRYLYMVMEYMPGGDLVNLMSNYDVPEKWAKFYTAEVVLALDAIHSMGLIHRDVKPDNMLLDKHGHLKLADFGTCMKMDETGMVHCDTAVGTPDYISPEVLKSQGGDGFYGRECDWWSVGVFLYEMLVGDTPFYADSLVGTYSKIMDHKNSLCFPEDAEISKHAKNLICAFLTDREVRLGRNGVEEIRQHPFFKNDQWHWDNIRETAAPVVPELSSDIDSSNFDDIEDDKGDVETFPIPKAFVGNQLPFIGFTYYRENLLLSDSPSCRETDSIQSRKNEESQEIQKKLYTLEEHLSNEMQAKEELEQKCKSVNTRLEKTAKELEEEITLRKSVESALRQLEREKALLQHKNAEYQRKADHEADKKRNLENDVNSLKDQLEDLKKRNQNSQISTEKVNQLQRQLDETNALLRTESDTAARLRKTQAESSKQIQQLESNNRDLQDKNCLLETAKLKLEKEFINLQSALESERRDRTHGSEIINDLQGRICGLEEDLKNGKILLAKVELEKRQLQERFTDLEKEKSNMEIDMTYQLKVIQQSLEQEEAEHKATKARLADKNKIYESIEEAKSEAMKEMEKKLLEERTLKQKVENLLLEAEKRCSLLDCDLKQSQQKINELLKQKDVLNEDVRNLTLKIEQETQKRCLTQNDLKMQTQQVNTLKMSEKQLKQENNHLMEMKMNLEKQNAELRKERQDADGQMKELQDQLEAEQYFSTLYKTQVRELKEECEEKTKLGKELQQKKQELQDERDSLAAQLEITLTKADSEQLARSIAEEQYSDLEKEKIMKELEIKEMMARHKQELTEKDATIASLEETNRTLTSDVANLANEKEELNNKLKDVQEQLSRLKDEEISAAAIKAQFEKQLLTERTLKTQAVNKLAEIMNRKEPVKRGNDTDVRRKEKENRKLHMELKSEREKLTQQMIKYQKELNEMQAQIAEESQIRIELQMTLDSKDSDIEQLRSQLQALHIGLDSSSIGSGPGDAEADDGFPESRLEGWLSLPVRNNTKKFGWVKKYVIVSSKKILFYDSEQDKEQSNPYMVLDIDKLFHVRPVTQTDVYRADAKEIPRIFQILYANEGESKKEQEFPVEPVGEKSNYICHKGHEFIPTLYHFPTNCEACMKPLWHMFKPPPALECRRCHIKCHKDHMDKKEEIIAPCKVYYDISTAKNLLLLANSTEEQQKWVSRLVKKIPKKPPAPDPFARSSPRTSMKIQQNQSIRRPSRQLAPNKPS
T4 sequence (P54646 whole entry): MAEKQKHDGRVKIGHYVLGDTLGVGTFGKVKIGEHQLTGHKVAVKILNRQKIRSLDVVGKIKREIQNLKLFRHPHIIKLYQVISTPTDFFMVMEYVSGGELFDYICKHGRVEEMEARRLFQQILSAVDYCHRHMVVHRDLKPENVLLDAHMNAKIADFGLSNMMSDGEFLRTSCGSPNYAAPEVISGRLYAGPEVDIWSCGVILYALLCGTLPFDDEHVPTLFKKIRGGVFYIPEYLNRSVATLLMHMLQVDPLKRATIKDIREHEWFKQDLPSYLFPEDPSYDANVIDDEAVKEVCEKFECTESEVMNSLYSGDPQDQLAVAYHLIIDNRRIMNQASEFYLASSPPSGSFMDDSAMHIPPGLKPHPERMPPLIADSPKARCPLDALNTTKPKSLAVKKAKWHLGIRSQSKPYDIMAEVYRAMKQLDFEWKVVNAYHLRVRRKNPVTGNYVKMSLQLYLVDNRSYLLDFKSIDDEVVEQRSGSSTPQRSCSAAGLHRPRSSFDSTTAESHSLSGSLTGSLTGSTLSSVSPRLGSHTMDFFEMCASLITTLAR
T4 sequence (Q9Y478 whole entry partner): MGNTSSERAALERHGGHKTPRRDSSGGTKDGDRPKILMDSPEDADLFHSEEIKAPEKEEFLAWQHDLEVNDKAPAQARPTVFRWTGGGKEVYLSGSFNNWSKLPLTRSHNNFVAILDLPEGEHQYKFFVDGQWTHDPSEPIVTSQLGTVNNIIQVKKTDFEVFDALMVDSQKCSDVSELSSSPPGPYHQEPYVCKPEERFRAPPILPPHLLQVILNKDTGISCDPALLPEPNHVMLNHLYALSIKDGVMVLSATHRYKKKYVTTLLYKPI
T4 sequence (Q9UGJ0 whole entry partner): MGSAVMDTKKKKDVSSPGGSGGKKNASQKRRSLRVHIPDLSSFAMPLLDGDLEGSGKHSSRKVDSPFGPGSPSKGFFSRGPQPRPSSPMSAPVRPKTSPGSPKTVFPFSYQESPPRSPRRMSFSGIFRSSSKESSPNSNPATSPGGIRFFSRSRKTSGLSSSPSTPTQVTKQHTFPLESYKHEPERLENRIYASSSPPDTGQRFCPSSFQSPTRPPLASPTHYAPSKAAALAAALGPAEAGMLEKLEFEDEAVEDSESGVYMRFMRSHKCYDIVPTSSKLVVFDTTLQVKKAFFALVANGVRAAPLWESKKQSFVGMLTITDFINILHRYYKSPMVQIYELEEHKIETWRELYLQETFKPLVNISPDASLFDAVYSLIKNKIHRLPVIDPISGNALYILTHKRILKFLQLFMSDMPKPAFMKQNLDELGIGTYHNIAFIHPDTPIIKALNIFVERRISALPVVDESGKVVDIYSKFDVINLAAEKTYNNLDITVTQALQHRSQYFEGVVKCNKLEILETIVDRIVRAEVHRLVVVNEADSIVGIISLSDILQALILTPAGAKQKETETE
T3 sequence (Q9P1W9 whole entry): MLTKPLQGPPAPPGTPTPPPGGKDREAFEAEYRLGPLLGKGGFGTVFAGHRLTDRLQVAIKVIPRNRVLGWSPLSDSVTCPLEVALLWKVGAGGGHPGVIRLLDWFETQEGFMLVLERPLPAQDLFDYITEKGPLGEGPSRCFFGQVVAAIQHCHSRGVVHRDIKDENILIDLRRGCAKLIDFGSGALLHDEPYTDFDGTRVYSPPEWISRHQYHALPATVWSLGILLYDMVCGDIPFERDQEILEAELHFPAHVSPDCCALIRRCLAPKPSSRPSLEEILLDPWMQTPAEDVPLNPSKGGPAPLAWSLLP
T7 sequence (Q9NYA1 whole entry): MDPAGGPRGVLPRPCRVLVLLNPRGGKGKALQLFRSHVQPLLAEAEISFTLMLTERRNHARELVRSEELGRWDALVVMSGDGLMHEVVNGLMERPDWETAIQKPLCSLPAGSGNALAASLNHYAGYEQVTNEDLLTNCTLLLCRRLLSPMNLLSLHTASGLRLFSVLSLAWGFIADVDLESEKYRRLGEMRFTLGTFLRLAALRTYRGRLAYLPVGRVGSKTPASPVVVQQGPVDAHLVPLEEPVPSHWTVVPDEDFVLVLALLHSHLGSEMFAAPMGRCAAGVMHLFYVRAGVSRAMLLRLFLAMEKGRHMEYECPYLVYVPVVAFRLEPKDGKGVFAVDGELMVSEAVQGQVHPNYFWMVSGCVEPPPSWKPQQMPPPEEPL

Consider `COc1ccc2c(c1OC)c(=O)n1c3ccc(O)cc3c3ccnc2c31` [MW01, 5-Hydroxy-10,11-dimethoxy-9H-benzo[c]indolo[3,2,1-ij][1,5]naphthyridin-9-one], for which the inhibition (commonly the relative decrease from the control value, in per cent) at 1 µM on PHKG2 is 6%; at STK22D (TSSK1) it was 11%; at PIM2 it was 6%; on AMPK (A2/B1/G2), -12%; at ROCK2 it was 14%; on AXL, 51%. Besides, at SPHK1, the inhibition at 1 µM is -7%. The inhibition at 10 µM amounted to 8% on PHKG2; 22% on STK22D (TSSK1); 13% on PIM2; 10% on AMPK (A2/B1/G2); 18% on ROCK2; 80% on AXL. Besides, the inhibition at 10 µM at SPHK1 is -3%.

On to `COc1ccc2cc3c(N)nn(C(=O)c4cccc(N(C)C)c4)c3nc2c1` [MW05, (3-Amino-7-methoxypyrazolo[3,4-b]quinolin-1-yl)-[3-(dimethylamino)phenyl]methanone], for which the inhibition at 1 µM was 6% on PHKG2; 2% on STK22D (TSSK1); -1% at PIM2; -12% at AMPK (A2/B1/G2); 14% on ROCK2; 4% on AXL. Besides, the inhibition at 1 µM on SPHK1 is -2%. Besides, the inhibition at 10 µM at PHKG2 was -3%; at STK22D (TSSK1), 5%; on PIM2 it was -3%; on AMPK (A2/B1/G2) it was -16%; at ROCK2, 4%; on AXL, -8%. Also, the inhibition at 10 µM at SPHK1 amounted to 1%.
